Measured values from the Deep4Chem optical property database.

Assay: photoluminescence quantum yield (fraction); solvent given as SMILES

Structure (SMILES): CCCCCCCCC1(CCCCCCCC)c2cc(-c3ccc(C=C4C(=O)c5ccccc5C4=O)cc3)ccc2-c2ccc(-c3ccc(C=C4C(=O)c5ccccc5C4=O)cc3)cc21
- photoluminescence quantum yield (in C1CCOC1): 0.048
- photoluminescence quantum yield (in CC(C)=O): 0.116
- photoluminescence quantum yield (in CCCCCC): 0.007
- photoluminescence quantum yield (in CS(C)=O): 0.245
- photoluminescence quantum yield (in Cc1ccccc1): 0.011
- photoluminescence quantum yield (in ClC(Cl)Cl): 0.014

Structure (SMILES): c1ccc(/C(=C(\c2ccccc2)c2cc(-c3ccccc3)ccc2-c2ccccc2)c2cc(-c3ccccc3)ccc2-c2ccccc2)cc1
- photoluminescence quantum yield (in C1CCOC1): 0.3

Structure (SMILES): c1ccc(-c2pc3ccccc3s2)cc1 (stereo unspecified)
- photoluminescence quantum yield (in CC#N): 0.044

Structure (SMILES): COc1ccc(-c2n[n+]3c(s2)N=C(c2ccccc2)O[B-]3(F)F)cc1
- photoluminescence quantum yield (in Cc1ccccc1): 0.16

Structure (SMILES): Cc1ccc(-n2c(-c3cccc4cc[n-]c34)[nH+]c3c4ccccc4c4ccccc4c32)cc1
- photoluminescence quantum yield (in Cc1ccccc1): 0.015

Structure (SMILES): O=C1c2cccc3c(NCc4ccccn4)c4ccccc4c(c23)C(=O)N1Cc1ccccn1
- photoluminescence quantum yield (in C1CCOC1): 0.07
- photoluminescence quantum yield (in CCCCCC): 0.04
- photoluminescence quantum yield (in CCO): 0.07
- photoluminescence quantum yield (in Cc1ccccc1): 0.08
- photoluminescence quantum yield (in ClCCl): 0.1

Structure (SMILES): CCCCC#Cc1cccc2cc(CCCC)c3cc(-c4cc[b-]5c(c4)c(CCCC)cc4cccc(C#CCCCC)[n+]54)cc[b-]3[n+]12
- photoluminescence quantum yield (in C1CCCCC1): 0.12

Structure (SMILES): COC(=O)c1ccc(/C=C2\C=C(c3ccc(OC)c(OC)c3)OC2=O)cc1
- photoluminescence quantum yield (in C1COCCO1): 0.355

Structure (SMILES): Cc1ccc(C#Cc2c3cc4ccccc4cc3c(C#C[Si](C(C)C)(C(C)C)C(C)C)c3cc4ccccc4cc23)cc1
- photoluminescence quantum yield (in ClCCl): 0.1

Structure (SMILES): COc1ccc(-c2nnc(-c3cc(-n4c5ccccc5c5ccccc54)c(-n4c5ccccc5c5ccccc54)cc3-c3nnc(-c4ccc(OC)cc4)o3)o2)cc1
- photoluminescence quantum yield (in Cc1ccccc1): 0.47

Structure (SMILES): CCN(CC)c1ccc2c(-c3ccccc3C(=O)O)c3c([o+]c2c1)/C(=C/Nc1ccccc1)CCC3
- photoluminescence quantum yield (in CCO): 0.35
- photoluminescence quantum yield (in ClC(Cl)Cl): 0.35
- photoluminescence quantum yield (in ClCCl): 0.6

Structure (SMILES): CCC1(CC)c2ccccc2-c2ccc(C#Cc3cc(C#Cc4ccc5c(c4)C(CC)(CC)c4ccccc4-5)c4ccc5c(C#Cc6ccc7c(c6)C(CC)(CC)c6ccccc6-7)cc(C#Cc6ccc7c(c6)C(CC)(CC)c6ccccc6-7)c6ccc3c4c65)cc21
- photoluminescence quantum yield (in Cc1ccccc1): 0.64

Structure (SMILES): Cc1cc2c(o1)c(Br)cc1c(C)cc(=O)oc12
- photoluminescence quantum yield (in C1CCCCC1): 0.0004
- photoluminescence quantum yield (in C1COCCO1): 0.002
- photoluminescence quantum yield (in CC#N): 0.0014
- photoluminescence quantum yield (in CCO): 0.005
- photoluminescence quantum yield (in OCC(F)(F)F): 0.005

Structure (SMILES): CC1=CC(C)=[N+]2C1=C(c1ccc(C(=O)OC3C[C@@H]4CC[C@]3(C)C4(C)C)cc1)c1c(C)cc(C)n1[B-]2(F)F (stereo partly specified)
- photoluminescence quantum yield (in Cc1ccccc1): 0.37

Structure (SMILES): CCN(CC)c1ccc2cc(/C=C/c3ccccc3)c(=O)oc2c1
- photoluminescence quantum yield (in CC#N): 0.85

Structure (SMILES): CCCCCCN1C(=O)c2cccc3cc(/N=C\c4ccc5c(c4)c4ccccc4n5CC)cc(c23)C1=O
- photoluminescence quantum yield (in ClC(Cl)Cl): 0.021

Structure (SMILES): COCCOCCOCCOCCOc1cc(C=O)c(OCCOCCOCCOCCOC)cc1C=O
- photoluminescence quantum yield (in CC(C)(C)O): 0.12
- photoluminescence quantum yield (in CC(C)CO): 0.1
- photoluminescence quantum yield (in CC(C)O): 0.11
- photoluminescence quantum yield (in CCCCO): 0.09
- photoluminescence quantum yield (in CCCO): 0.14
- photoluminescence quantum yield (in CCO): 0.18
- photoluminescence quantum yield (in CN(C)C=O): 0.04
- photoluminescence quantum yield (in CNC=O): 0.05
- photoluminescence quantum yield (in CO): 0.22
- photoluminescence quantum yield (in NC=O): 0.31
- photoluminescence quantum yield (in O): 0.55

Structure (SMILES): O=[N+]([O-])c1ccc(C#Cc2ccccc2C#Cc2ccc([N+](=O)[O-])cc2)cc1
- photoluminescence quantum yield (in CC#N): 0

Structure (SMILES): O=C1/C(=C\c2ccc(N(c3ccccc3)c3ccccc3)cc2)S(=O)(=O)c2ccccc21
- photoluminescence quantum yield (in C1CCOC1): 0.037
- photoluminescence quantum yield (in C1COCCO1): 0.324
- photoluminescence quantum yield (in CC#N): 0.002
- photoluminescence quantum yield (in CC(C)=O): 0.003
- photoluminescence quantum yield (in CCOC(C)=O): 0.036
- photoluminescence quantum yield (in CN(C)C=O): 0.024
- photoluminescence quantum yield (in CO): 0.021
- photoluminescence quantum yield (in CS(C)=O): 0.032
- photoluminescence quantum yield (in Cc1ccccc1): 0.559
- photoluminescence quantum yield (in ClC(Cl)Cl): 0.142
- photoluminescence quantum yield (in ClCCl): 0.022

Structure (SMILES): CC/[NH+]=c1\cc2oc3cc(NCCC(=O)NC(C(=O)OC)C(C)C)c4ccccc4c3nc-2cc1C (stereo unspecified)
- photoluminescence quantum yield (in CCO): 0.4
- photoluminescence quantum yield (in O): 0.26

Structure (SMILES): c1ccc(-c2nc(-c3ccc(-c4ccc(-c5ccc(-c6nc(-c7ccccc7)c(-c7ccccc7)o6)cc5)cc4)cc3)oc2-c2ccccc2)cc1
- photoluminescence quantum yield (in C1COCCO1): 0.73

Structure (SMILES): CCC(CC)COC1=CC2=C3c4cc(OCC(CC)CC)c(-c5cccs5)n4[B-](F)(F)[n+]4c3n(c3cc(C(C)(C)C)ccc34)[B-](F)(F)[N+]2=C1c1cccs1
- photoluminescence quantum yield (in C1CCOC1): 0.07
- photoluminescence quantum yield (in ClCCl): 0.07

Structure (SMILES): CCCCCCCCCCN1C(=O)c2cc(NCCCOCCO)c3c4c(cc(NCCCOCCO)c(c24)C1=O)C(=O)N(CCCCCCCCCC)C3=O
- photoluminescence quantum yield (in CO): 0.43
- photoluminescence quantum yield (in ClC(Cl)Cl): 0.58
